Several values for one entry are separate records, joined by “and”; a condition that tells them apart may be missing. Equal entries are not always repeated.
Columns and labels:
[1] = system: JFCR39 panel of 39 human tumor cell lines; test: JFCR39 panel growth inhibition, panel statistics; format: cell-based; conditions: Homo sapiens; JFCR39 panel; read-out: mean GI50 across all 39 cell lines
Protocol: JFCR39 drug discovery system was used to measure the growth inhibitory activities and identify the target of KTC1101. The JFCR39 panel consists of 39 cell lines seeded in 96-well plates. After 48-h treatment with KTC1101, cell growth was measured using the sulforhodamine B assay. […] The deviation of log GI50 for each cell line from the average log GI50 across the JFCR39 panel was plotted as a fingerprint. MG-MID (mean of Log GI50 values) represents the average log GI50 for all 39 cell lines. The most sensitive and least sensitive cell lines were identified by calculating the difference in their log GI50 values (Range) and the difference between the most sensitive cell line and the average GI50 on the JFCR39 panel (Delta). The fingerprint of KTC1101 was compared with the fingerprints of reference compounds in the database. The Pearson correlation coefficient (r) was calculated (n = 39).

[2] = system: B16 cells gene expression; test: RNA-Seq (DEGs, GSEA, heatmaps) of B16 cells; conditions: B16 cells, replicates KTC1-KTC3
[3] = Liver microsome metabolic stability assay; conditions: mouse, microsomes
[4] = Plasma metabolic stability assay; format: in vitro ADME; conditions: mouse plasma, 37°C, 120 min incubation
Protocol: 495 µL of plasma was placed in a 96-well plate and pre-incubated at 37°C for 5 min.

## COc1c(OCCCN2CCOCC2)ccc2c1N=C(NC(=O)c1cnc(N)nc1)N1CCN=C21 [Copanlisib, reference compound]
[1]
  GI50: 134 nM

## COc1cc(N)cc2c1nc(C(F)F)n2-c1nc(N2CCCOCC2)nc(N2CCOCC2)n1 [KTC]
[2]; KTC 0.04μM
  Adam19 gene expression (RNA-Seq): 11.78 and 12.44 and 13.05
  Axl gene expression (RNA-Seq): 4.83 and 4.54 and 4.92
  Btg1 gene expression (RNA-Seq): 6.87 and 7.6 and 7.15
  Capg gene expression (RNA-Seq): 24.95 and 22.04 and 23.37
  Ccl5 gene expression (RNA-Seq): 9.15 and 9.99 and 10.19
  Ccn1 gene expression (RNA-Seq): 37.5 and 41.45 and 42.8
  Ccnd1 gene expression (RNA-Seq): 70.38 and 71.17 and 69.7
  Cx3cl1 gene expression (RNA-Seq): 1.55 and 2.17 and 1.72
  Cxcl10 gene expression (RNA-Seq): 16.76 and 15.67 and 17.26
  Dusp1 gene expression (RNA-Seq): 4.08 and 4.86 and 3.75
  Dusp4 gene expression (RNA-Seq): 48.69 and 51.07 and 50.43
  Egr1 gene expression (RNA-Seq): 0.45 and 0.83 and 0.94
  Etv4 gene expression (RNA-Seq): 1.8 and 1.31 and 1.55
  Fos gene expression (RNA-Seq): 5.98 and 9.07 and 3.6
  Fosb gene expression (RNA-Seq): 5.83 and 8.56 and 1.19
  Hes1 gene expression (RNA-Seq): 2.93 and 3.6 and 4.11
  Irak2 gene expression (RNA-Seq): 4.46 and 3.71 and 4.84
  Irf6 gene expression (RNA-Seq): 0.75 and 0.73 (2×)
  Irs2 gene expression (RNA-Seq): 4.62 and 4.54 and 4.48
  Jag1 gene expression (RNA-Seq): 3.9 and 3.6 and 3.87
  Junb gene expression (RNA-Seq): 5.41 and 5.91 and 6.31
  Klf2 gene expression (RNA-Seq): 2.37 and 2.53 and 1.84
  Klf9 gene expression (RNA-Seq): 1.42 and 1.56 and 1.52
  Maff gene expression (RNA-Seq): 1.99 and 1.97 and 1.81
  Myc gene expression (RNA-Seq): 51.1 and 50.03 and 54.71
  Nfkb2 gene expression (RNA-Seq): 19.99 and 21.56 and 22.54
  Nfkbia gene expression (RNA-Seq): 16.08 and 16.06 and 15.47
  Nfkbie gene expression (RNA-Seq): 12.93 and 13.17 and 14.09
  Nr4a1 gene expression (RNA-Seq): 27.6 and 28.38 and 30.22
  Nr4a3 gene expression (RNA-Seq): 13.97 and 13.13 and 12.62
  P2rx7 gene expression (RNA-Seq): 9.9 and 10.96 and 10.37
  Pde4b gene expression (RNA-Seq): 7.81 and 8.81 and 8.51
  Pmepa1 gene expression (RNA-Seq): 0.72 and 0.75 and 0.79
  Pnrc1 gene expression (RNA-Seq): 23.22 and 24.79 and 24.57
  Relb gene expression (RNA-Seq): 7.12 and 7.46 and 7.78
  Rgs16 gene expression (RNA-Seq): 6.49 and 5.97 and 6.54
  Rhob gene expression (RNA-Seq): 30.37 and 32.79 and 32.66
  Serpine1 gene expression (RNA-Seq): 0.22 and 0.24 and 0.32
  Sgk1 gene expression (RNA-Seq): 3.46 and 3.48 and 3.41
  Sgms2 gene expression (RNA-Seq): 0.2 and 0.16 and 0.24
  Spred2 gene expression (RNA-Seq): 15.32 and 15.07 and 16.22
  Spry4 gene expression (RNA-Seq): 1.16 and 1.17 and 1.15
  Tiparp gene expression (RNA-Seq): 15.99 and 15.69 and 16.6
  Zc3h12a gene expression (RNA-Seq): 2.43 and 2.61 and 1.93
  Zfp36 gene expression (RNA-Seq): 3.85 and 4.04 and 4.57
[2]; KTC 0.2μM
  Adam19 gene expression (RNA-Seq): 19.27 and 19.65 and 19.87
  Adcy1 gene expression (RNA-Seq): 0.05 (2×) and 0.09
  Adcy6 gene expression (RNA-Seq): 15.71 and 16.34 and 15.68
  Adcy7 gene expression (RNA-Seq): 24.18 and 23.98 and 24.16
  Ahr gene expression (RNA-Seq): 3.75 and 3.9 and 4.26
  Arrb1 gene expression (RNA-Seq): 7.32 and 7.58 and 7.1
  Axl gene expression (RNA-Seq): 19.13 and 18.11 and 18.34
  Bcl3 gene expression (RNA-Seq): 1.26 and 1.46 and 1.81
  Birc3 gene expression (RNA-Seq): 0.82 and 0.69 and 1.02
  Btg1 gene expression (RNA-Seq): 10.22 and 9.53 and 9.68
  Capg gene expression (RNA-Seq): 39.95 and 40.18 and 41.23
  Ccl5 gene expression (RNA-Seq): 26.92 and 30.51 and 26.01
  Ccl6 gene expression (RNA-Seq): 0.22 (2×) and 0.39
  Ccl9 gene expression (RNA-Seq): 0.11 and 0.07 and 0.02
  Ccl27b gene expression (RNA-Seq): 0.37 and 0.93 and 0.69
  Ccn1 gene expression (RNA-Seq): 43.03 and 43.88 and 47.2
  Ccnd1 gene expression (RNA-Seq): 93.08 and 94.99 and 95.21
  Cish gene expression (RNA-Seq): 2.04 and 1.79 and 1.74
  Ckap4 gene expression (RNA-Seq): 13.31 and 12.58 and 12.66
  Cx3cl1 gene expression (RNA-Seq): 1.83 and 1.75 and 1.74
  Cxcl1 gene expression (RNA-Seq): 0.29 and 0.77 and 0.5
  Cxcl10 gene expression (RNA-Seq): 23.61 and 22.04 and 22.99
  Cxcr3 gene expression (RNA-Seq): 1.95 and 1.7 and 1.8
  Dcps gene expression (RNA-Seq): 124.78 and 129.34 and 129.92
  Dusp1 gene expression (RNA-Seq): 6.18 and 4.88 and 5.31
  Dusp4 gene expression (RNA-Seq): 74.48 and 66.32 and 71.85
  Egr1 gene expression (RNA-Seq): 2.42 and 2.39 and 2.31
  Egr2 gene expression (RNA-Seq): 0.12 and 0.14 and 0.22
  Etfbkmt gene expression (RNA-Seq): 13.18 and 12.47 and 12.84
  Etv4 gene expression (RNA-Seq): 2.57 and 3.09 and 3.52
  Fos gene expression (RNA-Seq): 6.53 and 3.78 and 2.09
  Fosb gene expression (RNA-Seq): 6.21 and 3 and 0.33
  Gnb4 gene expression (RNA-Seq): 8.23 and 8.94 and 8.73
  Gng11 gene expression (RNA-Seq): 47.07 and 50.78 and 52.97
  Gsto1 gene expression (RNA-Seq): 56.3 and 52.98 and 58.2
  Hes1 gene expression (RNA-Seq): 4.87 and 4.41 and 5.8
  Ifitm3 gene expression (RNA-Seq): 48.58 and 48.45 and 50.69
  Igf1r gene expression (RNA-Seq): 6.64 and 6.31 and 6.49
  Ikzf2 gene expression (RNA-Seq): 0.58 and 0.65 and 0.83
  Il3ra gene expression (RNA-Seq): 8.13 and 8.28 and 7.91
  Il4ra gene expression (RNA-Seq): 0.35 and 0.33 and 0.39
  Il15ra gene expression (RNA-Seq): 0.8 and 0.77 and 0.98
  Il18 gene expression (RNA-Seq): 2.98 and 3.73 and 3.81
  Irak2 gene expression (RNA-Seq): 6.66 and 7.18 and 6.91
  Irf6 gene expression (RNA-Seq): 0.95 and 0.94 and 0.76
  Irs2 gene expression (RNA-Seq): 6.99 and 6.74 and 7.06
  Jag1 gene expression (RNA-Seq): 5.14 and 5.2 and 5.32
  Junb gene expression (RNA-Seq): 9.95 and 9.21 and 10.31
  Klf2 gene expression (RNA-Seq): 5.92 and 4.44 and 4.22
  Klf4 gene expression (RNA-Seq): 1.74 and 0.87 and 0.94
  Klf9 gene expression (RNA-Seq): 2.21 and 2.14 and 2.03
  Lif gene expression (RNA-Seq): 0.18 and 0.1 and 0.2
  Lrrc8c gene expression (RNA-Seq): 9.54 and 9.91 and 9.16
  Maff gene expression (RNA-Seq): 8.01 and 8.27 and 7.95
  Myc gene expression (RNA-Seq): 80.51 and 79.74 and 85.17
  Nfkb2 gene expression (RNA-Seq): 29.06 and 30.4 and 30.6
  Nfkbia gene expression (RNA-Seq): 28.35 and 27.12 and 24.65
  Nfkbie gene expression (RNA-Seq): 23.83 and 25.35 and 25
  Nr4a1 gene expression (RNA-Seq): 46.25 and 44.44 and 46.02
  Nr4a3 gene expression (RNA-Seq): 17.79 and 16.5 and 17.39
  P2rx7 gene expression (RNA-Seq): 16.97 and 18.85 and 16.56
  Pde4b gene expression (RNA-Seq): 11.38 and 11.69 and 11.76
  Pim1 gene expression (RNA-Seq): 7.35 and 8.15 and 8.02
  Plcb2 gene expression (RNA-Seq): 0.43 and 0.62 and 0.67
  Plcg2 gene expression (RNA-Seq): 1.3 and 1.71 and 1.76
  Pmepa1 gene expression (RNA-Seq): 1.45 and 1.08 and 1.06
  Pnrc1 gene expression (RNA-Seq): 33.48 and 28.22 and 29.95
  Prnp gene expression (RNA-Seq): 1380.34 and 1358.49 and 1354.58
  Ptk2b gene expression (RNA-Seq): 2.37 and 2.08 and 2.03
  Relb gene expression (RNA-Seq): 11.53 and 13.05 and 11.17
  Rgs16 gene expression (RNA-Seq): 9.71 and 10 and 9.9
  Rhob gene expression (RNA-Seq): 60.96 and 58.66 and 58.57
  Serpine1 gene expression (RNA-Seq): 1.09 and 0.86 and 1.2
  Shc3 gene expression (RNA-Seq): 0.37 and 0.31 and 0.25
  Smad3 gene expression (RNA-Seq): 20.9 and 21.03 and 22.24
  Smpdl3a gene expression (RNA-Seq): 36.94 and 40.39 and 39.45
  Spred2 gene expression (RNA-Seq): 19.27 and 21.51 and 19.83
  Spry4 gene expression (RNA-Seq): 2.44 and 2.59 and 2.62
  Src gene expression (RNA-Seq): 43.09 and 43.5 and 41.98
  St3gal4 gene expression (RNA-Seq): 75.01 and 74.93 and 70.63
  Syt11 gene expression (RNA-Seq): 7.36 and 7.81 and 7.47
  Tlr2 gene expression (RNA-Seq): 0.22 and 0.34 and 0.25
  Tlr7 gene expression (RNA-Seq): 0.79 and 0.75 and 0.7
  Tnfaip3 gene expression (RNA-Seq): 0.93 and 0.95 and 0.79
  Zc3h12a gene expression (RNA-Seq): 3.34 and 3.16 and 3.73

## Cc1ncc2n1-c1ccc(Cl)cc1C(c1ccccc1F)=NC2 [Midazolam, reference compound]
[3]
  half-life at 1 µM: 1.24 min
  microsomal CLint at 1 µM: 1120 µL/min/mg

## CCN(CC)CCOC(=O)c1ccc(N)cc1 [Procaine, reference compound]
[4]
  half-life at 1 µM: 37.8 min

## FC(F)c1nc2ccccc2n1-c1nc(N2CCOCC2)nc(N2CCOCC2)n1 [ZSTK474, reference compound]
[1]
  GI50: 320 nM
